In patent US20020026053A1, “Novel 3-(substituted) -2- indolinones compounds and use thereof as inhibitors of protein kinase activity” (priority 1997, published 2002):

Molecular target: T1, EGFR (Homo sapiens, UniProt P00533)
T1 construct: endogenous in cells; host or cells: A431 cells (lysate, captured with SUMO1 anti-EGFR antibody)
Experiment: Biochemical EGFR Assay
Set-up: concentration or dose not given beside the values
Conditions: protocol P.167
In short: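 Readout is ABTS absorbance at 410 nm after anti-phosphotyrosine and HRP-antibody detection of EGFR autophosphorylation. The kinase was immunocaptured from A431 lysate, exposed 30 min to test compound diluted 1:10 in TBS, then phosphorylated for 5 min with ATP/MnCl2 before an EDTA stop.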

T1 sequence (P00533 25-1210): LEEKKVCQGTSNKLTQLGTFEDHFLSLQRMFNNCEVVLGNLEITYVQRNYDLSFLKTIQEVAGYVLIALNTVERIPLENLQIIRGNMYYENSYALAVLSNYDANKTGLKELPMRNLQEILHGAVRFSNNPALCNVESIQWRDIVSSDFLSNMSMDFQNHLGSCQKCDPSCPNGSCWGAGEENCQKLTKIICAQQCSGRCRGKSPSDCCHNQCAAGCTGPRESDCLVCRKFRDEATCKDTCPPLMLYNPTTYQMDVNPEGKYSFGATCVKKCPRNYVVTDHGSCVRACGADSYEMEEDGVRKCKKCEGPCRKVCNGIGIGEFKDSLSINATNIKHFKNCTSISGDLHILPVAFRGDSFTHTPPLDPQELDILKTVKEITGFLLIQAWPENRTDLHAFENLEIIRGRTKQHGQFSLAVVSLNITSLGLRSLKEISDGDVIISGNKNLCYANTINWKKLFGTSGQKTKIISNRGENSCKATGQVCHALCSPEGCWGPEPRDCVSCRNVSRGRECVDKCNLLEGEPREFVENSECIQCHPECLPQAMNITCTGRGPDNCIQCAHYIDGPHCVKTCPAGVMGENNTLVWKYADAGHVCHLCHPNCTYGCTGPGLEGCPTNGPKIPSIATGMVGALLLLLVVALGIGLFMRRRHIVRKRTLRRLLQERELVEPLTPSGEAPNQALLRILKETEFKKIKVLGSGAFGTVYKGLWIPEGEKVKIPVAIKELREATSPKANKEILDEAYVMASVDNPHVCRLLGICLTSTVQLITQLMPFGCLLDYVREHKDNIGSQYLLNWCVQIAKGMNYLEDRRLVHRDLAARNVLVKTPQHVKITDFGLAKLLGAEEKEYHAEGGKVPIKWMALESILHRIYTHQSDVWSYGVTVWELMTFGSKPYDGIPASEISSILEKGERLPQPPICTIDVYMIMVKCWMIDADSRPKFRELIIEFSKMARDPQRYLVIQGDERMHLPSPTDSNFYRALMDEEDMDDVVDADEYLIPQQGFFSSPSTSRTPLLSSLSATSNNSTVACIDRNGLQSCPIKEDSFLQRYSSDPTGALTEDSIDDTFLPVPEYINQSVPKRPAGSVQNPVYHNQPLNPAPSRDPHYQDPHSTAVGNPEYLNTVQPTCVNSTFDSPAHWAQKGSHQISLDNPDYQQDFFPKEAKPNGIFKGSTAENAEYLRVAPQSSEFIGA

Cc1c(Br)cc(Br)c2c1C(=Cc1cccc(Cl)c1)C(=O)N2 [10736/H06]
Biochem EGFR % Inhibition (P.167): 12.6%
